Experimental data taken from patent US12539292B2, “BRM targeting compounds and associated methods of use” (Arvinas Operations, Inc., priority 2018, dated 2026).
Read-outs that look alike come from different tables or passages of the source. Each block holds one compound with its values, some of them ahead of it.

Biological target: T1, BRM (Homo sapiens, UniProt P51531)
T1 construct: In-Cell Western Screen of BRM Degradation in SW1573 Cells; endogenous in cells; host or cells: SW1573
Test: In-cell Western screen of BRM degradation in SW1573 cells (Dmax and DC50)
Format: cell-based
Outline: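 Near-infrared imaging on a LI-COR Odyssey (800 and 680 nm channels) quantifies BRM remaining in fixed SW1573 cells. Cells are dosed for 18-20 h at 0.1% final DMSO, and degradation is expressed as Dmax and DC50.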

[1] = BRM degradation, SW1573 cells, read-out: DC50
[2] = target protein degradation, read-out: BRM DC50
[3] = BRM degradation, SW1573 cells, when tested at the top concentration of between 0.3 and 10 μM, read-out: Dmax (%) (% degraded)
[4] = SW1573, % degraded, when tested at the top concentration of between 0.3 and 10 μM, read-out: BRM Dmax (%)
[5] = BRM degradation, SW1573 cells, tested at the top concentration of between 0.3 and 10 μM, read-out: Dmax (%) (% degraded)

T1 sequence (P51531 whole entry): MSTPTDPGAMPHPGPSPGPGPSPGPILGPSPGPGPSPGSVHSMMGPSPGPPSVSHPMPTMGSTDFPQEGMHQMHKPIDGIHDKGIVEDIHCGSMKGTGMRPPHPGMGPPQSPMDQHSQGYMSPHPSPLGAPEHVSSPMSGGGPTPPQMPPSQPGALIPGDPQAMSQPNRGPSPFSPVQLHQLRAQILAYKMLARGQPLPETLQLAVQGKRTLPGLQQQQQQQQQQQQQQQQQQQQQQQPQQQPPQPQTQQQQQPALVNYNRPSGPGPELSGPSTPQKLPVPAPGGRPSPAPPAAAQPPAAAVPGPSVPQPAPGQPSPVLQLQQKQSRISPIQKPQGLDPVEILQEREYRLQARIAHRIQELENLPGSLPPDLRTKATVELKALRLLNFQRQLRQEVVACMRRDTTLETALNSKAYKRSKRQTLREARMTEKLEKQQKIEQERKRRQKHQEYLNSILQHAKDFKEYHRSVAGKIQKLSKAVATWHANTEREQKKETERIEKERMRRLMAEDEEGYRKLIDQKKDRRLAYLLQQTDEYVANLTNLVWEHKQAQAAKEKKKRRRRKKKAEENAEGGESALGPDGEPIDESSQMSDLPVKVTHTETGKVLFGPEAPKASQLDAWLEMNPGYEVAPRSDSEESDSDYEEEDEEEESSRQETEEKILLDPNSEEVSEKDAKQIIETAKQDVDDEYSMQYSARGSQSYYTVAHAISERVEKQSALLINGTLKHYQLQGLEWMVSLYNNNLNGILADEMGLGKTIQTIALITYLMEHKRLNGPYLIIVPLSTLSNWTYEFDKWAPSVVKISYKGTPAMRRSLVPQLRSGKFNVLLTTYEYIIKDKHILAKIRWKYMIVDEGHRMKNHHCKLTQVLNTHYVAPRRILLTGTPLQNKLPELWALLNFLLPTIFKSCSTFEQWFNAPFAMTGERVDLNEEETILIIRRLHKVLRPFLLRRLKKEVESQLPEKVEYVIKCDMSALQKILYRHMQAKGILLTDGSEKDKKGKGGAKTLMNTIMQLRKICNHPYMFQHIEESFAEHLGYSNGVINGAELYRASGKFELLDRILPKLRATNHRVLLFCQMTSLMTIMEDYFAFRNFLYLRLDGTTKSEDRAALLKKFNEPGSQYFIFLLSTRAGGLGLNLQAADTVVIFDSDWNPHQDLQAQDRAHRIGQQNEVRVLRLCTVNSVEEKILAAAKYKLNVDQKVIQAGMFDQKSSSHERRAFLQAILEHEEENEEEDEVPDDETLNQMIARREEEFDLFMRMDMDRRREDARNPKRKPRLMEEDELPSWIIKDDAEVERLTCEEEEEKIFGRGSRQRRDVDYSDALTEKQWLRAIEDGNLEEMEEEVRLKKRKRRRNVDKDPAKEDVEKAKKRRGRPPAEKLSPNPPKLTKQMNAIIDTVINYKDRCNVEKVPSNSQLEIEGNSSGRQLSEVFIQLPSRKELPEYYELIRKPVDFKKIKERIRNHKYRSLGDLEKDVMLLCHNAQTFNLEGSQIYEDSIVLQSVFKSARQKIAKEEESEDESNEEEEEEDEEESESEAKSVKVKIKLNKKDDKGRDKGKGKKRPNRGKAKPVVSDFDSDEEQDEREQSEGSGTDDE

DC50 [1]: > 30 nM
Compound: Cc1ncsc1-c1ccc([C@@H](COCC2CCOCC2)NC(=O)[C@@H]2C[C@@H](O)CN2C(=O)[C@H](c2cc(OCCN3CCN(CCOc4cc(N5C6CCC5CN(c5cc(-c7ccccc7O)nnc5N)C6)ccn4)CC3)no2)C(C)C)cc1 [compound 272, (2S,4R)-1-((2S)-2-(3-(2-(4-(2-((4-(3-(3-amino-6-(2-hydroxyphenyl)pyridazin-4-yl)-3,8-diazabicyclo[3.2.1]octan-8-yl)pyridin-2-yl)oxy)ethyl)piperazin-1-yl)ethoxy)isoxazol-5-yl)-3-methylbutanoyl)-4-hydroxy-N-((S)-1-(4-(4-methylthiazol-5-yl)phenyl)-2-((tetrahydro-2H-pyran-4-yl)methoxy)ethyl)pyrrolidine-2-carboxamide]

Compound: Cc1ncsc1-c1ccc([C@H](C)NC(=O)C2C[C@@H](O)CN2C(=O)[C@H](c2onc(OCCN3CCC(O[C@H]4C[C@H](Oc5cc(N6C7CCC6CN(c6cc(-c8ccccc8O)nnc6N)C7)ccn5)C4)CC3)c2Cl)C(C)C)cc1 (stereo partly drawn) [compound 361, (2S,4R)-1-((2S)-2-(3-(2-(4-((1r,3S)-3-((4-(3-(3-amino-6-(2-hydroxyphenyl)pyridazin-4-yl)-3,8-diazabicyclo[3.2.1]octan-8-yl)pyridin-2-yl)oxy)cyclobutoxy)piperidin-1-yl)ethoxy)-4-chloroisoxazol-5-yl)-3-methylbutanoyl)-4-hydroxy-N-((S)-1-(4-(4-methylthiazol-5-yl)phenyl)ethyl)pyrrolidine-2-carboxamide]
DC50 [2]: > 30 nM

Compound: Cc1ncsc1-c1ccc([C@H](C)NC(=O)[C@@H]2C[C@@H](O)CN2C(=O)[C@@H](c2onc(OCCN3CCN(CCOc4cc(N5C6CCC5CN(c5cc(-c7ccccc7O)nnc5N)C6)ccn4)CC3)c2F)C(C)C)cc1 [compound 114, (2S,4R)-1-((2R)-2-(3-(2-(4-(2-((4-(3-(3-amino-6-(2-hydroxyphenyl)pyridazin-4-yl)-3,8-diazabicyclo[3.2.1]octan-8-yl)pyridin-2-yl)oxy)ethyl)piperazin-1-yl)ethoxy)-4-fluoroisoxazol-5-yl)-3-methylbutanoyl)-4-hydroxy-N-((S)-1-(4-(4-methylthiazol-5-yl)phenyl)ethyl)pyrrolidine-2-carboxamide]
DC50 [1]: < 2.5 nM | Dmax [3]: > 75%

Compound: Cc1ncsc1-c1ccc([C@H](C)NC(=O)[C@@H]2C[C@@H](O)CN2C(=O)[C@H](c2cc(N3CCC(CO[C@H]4C[C@H](Oc5cc(N6C7CCC6CN(c6cc(-c8ccccc8O)nnc6N)C7)ccn5)C4)CC3)no2)C(C)C)cc1 [compound 433, (2S,4R)-1-((2S)-2-(3-(4-(((1r,3S)-3-((4-(3-(3-amino-6-(2-hydroxyphenyl)pyridazin-4-yl)-3,8-diazabicyclo[3.2.1]octan-8-yl)pyridin-2-yl)oxy)cyclobutoxy)methyl)piperidin-1-yl)isoxazol-5-yl)-3-methylbutanoyl)-4-hydroxy-N-((S)-1-(4-(4-methylthiazol-5-yl)phenyl)ethyl)pyrrolidine-2-carboxamide]
Dmax [4]: > 75% | DC50 (degradation of BRM, read-out: BRM DC50): 2.5 to 10 nM

Compound: Cc1ncsc1-c1ccc([C@H](C)NC(=O)[C@@H]2C[C@@H](O)CN2C(=O)[C@@H](c2cc(C#CCN3CCC(O[C@H]4C[C@H](Oc5cc(N6C7CCC6CN(c6cc(-c8ccccc8O)nnc6N)C7)ccn5)C4)CC3)no2)C(C)C)cc1 [compound 380, (2S,4R)-1-((2R)-2-(3-(3-(4-((1r,3R)-3-((4-(3-(3-amino-6-(2-hydroxyphenyl)pyridazin-4-yl)-3,8-diazabicyclo[3.2.1]octan-8-yl)pyridin-2-yl)oxy)cyclobutoxy)piperidin-1-yl)prop-1-yn-1-yl)isoxazol-5-yl)-3-methylbutanoyl)-4-hydroxy-N-((S)-1-(4-(4-methylthiazol-5-yl)phenyl)ethyl)pyrrolidine-2-carboxamide]
Dmax [4]: > 75% | DC50 [2]: < 2.5 nM

Compound: Cc1ncsc1-c1ccc([C@H](C)NC(=O)[C@@H]2C[C@@H](O)CN2C(=O)[C@H](c2onc(OCCN3CCC(O[C@H]4C[C@H](Oc5cc(N6C7CCC6CN(c6cc(-c8ccccc8O)nnc6N)C7)ccn5)C4)CC3)c2F)C(C)C)cc1 [compound 208, (2S,4R)-1-((2S)-2-(3-(2-(4-((1r,3S)-3-((4-(3-(3-amino-6-(2-hydroxyphenyl)pyridazin-4-yl)-3,8-diazabicyclo[3.2.1]octan-8-yl)pyridin-2-yl)oxy)cyclobutoxy)piperidin-1-yl)ethoxy)-4-fluoroisoxazol-5-yl)-3-methylbutanoyl)-4-hydroxy-N-((S)-1-(4-(4-methylthiazol-5-yl)phenyl)ethyl)pyrrolidine-2-carboxamide]
DC50 [1]: > 30 nM | Dmax [5]: > 75%

Compound: Cc1cnsc1-c1ccc([C@H](C)NC(=O)[C@@H]2C[C@@H](O)CN2C(=O)[C@@H](c2cc(OCCN3CCN(CCOc4cc(N5C6CCC5CN(c5cc(-c7ccccc7O)nnc5N)C6)ccn4)CC3)no2)C(C)C)cc1 [compound 266, (2S,4R)-1-((2R)-2-(3-(2-(4-(2-((4-(3-(3-amino-6-(2-hydroxyphenyl)pyridazin-4-yl)-3,8-diazabicyclo[3.2.1]octan-8-yl)pyridin-2-yl)oxy)ethyl)piperazin-1-yl)ethoxy)isoxazol-5-yl)-3-methylbutanoyl)-4-hydroxy-N-((S)-1-(4-(4-methylisothiazol-5-yl)phenyl)ethyl)pyrrolidine-2-carboxamide]
DC50 [1]: < 2.5 nM | Dmax [5]: > 75%

DC50 [1]: > 30 nM
Compound: Cc1ncsc1-c1ccc([C@@H](NC(=O)[C@@H]2C[C@@H](O)CN2C(=O)[C@H](c2cc(OCCN3CCN(CCOc4cc(N5C6CCC5CN(c5cc(-c7ccccc7O)nnc5N)C6)ccn4)CC3)no2)C(C)C)C(=O)N(C)c2ccccc2)cc1 [compound 258, (2S,4R)-1-((2S)-2-(3-(2-(4-(2-((4-(3-(3-amino-6-(2-hydroxyphenyl)pyridazin-4-yl)-3,8-diazabicyclo[3.2.1]octan-8-yl)pyridin-2-yl)oxy)ethyl)piperazin-1-yl)ethoxy)isoxazol-5-yl)-3-methylbutanoyl)-4-hydroxy-N-((R)-2-(methyl(phenyl)amino)-1-(4-(4-methylthiazol-5-yl)phenyl)-2-oxoethyl)pyrrolidine-2-carboxamide]

Compound: Cc1ncsc1-c1ccc([C@H](C)NC(=O)[C@@H]2C[C@@H](O)CN2C(=O)[C@@H](c2cc(N3CCN(C[C@H]4C[C@H](Oc5cc(N6C7CCC6CN(c6cc(-c8ccccc8O)nnc6N)C7)ccn5)C4)CC3)no2)C(C)C)cc1 [compound 499, (2S,4R)-1-((2R)-2-(3-(4-(((1r,3R)-3-((4-(3-(3-amino-6-(2-hydroxyphenyl)pyridazin-4-yl)-3,8-diazabicyclo[3.2.1]octan-8-yl)pyridin-2-yl)oxy)cyclobutyl)methyl)piperazin-1-yl)isoxazol-5-yl)-3-methylbutanoyl)-4-hydroxy-N-((S)-1-(4-(4-methylthiazol-5-yl)phenyl)ethyl)pyrrolidine-2-carboxamide]
DC50 (BRM degradation, read-out: BRM DC50): < 2.5 nM | Dmax [4]: > 75%

Compound: Cc1nccn1-c1ccc([C@H](C)NC(=O)[C@@H]2C[C@@H](O)CN2C(=O)[C@H](c2cc(OCCN3CCN(CCOc4cc(N5C6CCC5CN(c5cc(-c7ccccc7O)nnc5N)C6)ccn4)CC3)no2)C(C)C)cc1 [compound 75, (2S,4R)-1-((2S)-2-(3-(2-(4-(2-((4-(3-(3-amino-6-(2-hydroxyphenyl)pyridazin-4-yl)-3,8-diazabicyclo[3.2.1]octan-8-yl)pyridin-2-yl)oxy)ethyl)piperazin-1-yl)ethoxy)isoxazol-5-yl)-3-methylbutanoyl)-4-hydroxy-N-((S)-1-(4-(2-methyl-1H-imidazol-1-yl)phenyl)ethyl)pyrrolidine-2-carboxamide]
DC50 [1]: 10 to 30 nM | Dmax [3]: > 75%

Compound: Cc1cc([C@@H](C(=O)N2C[C@H](O)C[C@H]2C(=O)N[C@@H](C)c2ccc(-c3scnc3C)cc2)[C@H](C)COCCCCn2cc(-c3cc(-c4ccccc4O)nnc3N)cn2)on1 [compound 557, (2S,4R)-1-((2S,3S)-4-(4-(4-(3-amino-6-(2-hydroxyphenyl)pyridazin-4-yl)-1H-pyrazol-1-yl)butoxy)-3-methyl-2-(3-methylisoxazol-5-yl)butanoyl)-4-hydroxy-N-((S)-1-(4-(4-methylthiazol-5-yl)phenyl)ethyl) pyrrolidine-2-carboxamide]
DC50 (BRM degradation, SW1573 cells, Table 2D, read-out: *DC50): > 30 nM

Compound: Cc1ncsc1-c1ccc(CNC(=O)[C@@H]2C[C@@H](O)CN2C(=O)[C@@H](c2cc(OCCN3CCN(CCCc4cc(N5C6CCC5CN(c5cc(-c7ccccc7O)nnc5N)C6)ccn4)CC3)no2)C(C)C)cc1 [compound 44, (2S,4R)-1-[(2R)-2-[3-(2-[4-[3-(4-[3-[3-amino-6-(2-hydroxyphenyl)pyridazin-4-yl]-3,8-diazabicyclo[3.2.1]octan-8-yl]pyridin-2-yl)propyl]piperazin-1-yl]ethoxy)-1,2-oxazol-5-yl]-3-methylbutanoyl]-4-hydroxy-N-[[4-(4-methyl-1,3-thiazol-5-yl)phenyl]methyl]pyrrolidine-2-carboxamide]
DC50 [1]: 10 to 30 nM | Dmax [3]: > 75%

Compound: Cc1ncn(C)c1-c1ccc([C@H](C)NC(=O)[C@@H]2C[C@@H](O)CN2C(=O)[C@H](c2cc(OCCN3CCC(O[C@H]4C[C@H](Oc5cc(N6C7CCC6CN(c6cc(-c8ccccc8O)nnc6N)C7)ccn5)C4)CC3)no2)C(C)C)cc1 [compound 365, (2S,4R)-1-((2S)-2-(3-(2-(4-((1r,3S)-3-((4-(3-(3-amino-6-(2-hydroxyphenyl)pyridazin-4-yl)-3,8-diazabicyclo[3.2.1]octan-8-yl)pyridin-2-yl)oxy)cyclobutoxy)piperidin-1-yl)ethoxy)isoxazol-5-yl)-3-methylbutanoyl)-N-((S)-1-(4-(1,4-dimethyl-1H-imidazol-5-yl)phenyl)ethyl)-4-hydroxypyrrolidine-2-carboxamide]
DC50 [2]: > 30 nM
